From ChEMBL document CHEMBL1152842, “Synthesis, Raman, FT-IR, NMR spectroscopic data and antimicrobial activity of mixed aza-oxo-thia macrocyclic compounds” (2009) come the findings set out here.

What all share (format): functional
Experiment [1] relates to Proteus vulgaris. The experiment is described as follows: Antibacterial activity against Proteus vulgaris ATCC 8427 after 24 hrs by disk diffusion method. On the technique in general: Agar diffusion results depend on both activity and mobility in agar.
For experiment [2], the system named is Klebsiella pneumoniae. The experiment is described as follows: Antibacterial activity against Klebsiella pneumoniae UC57 after 24 hrs by twofold serial dilution method.
For experiment [3], the system named is Mycolicibacterium smegmatis. Briefly: Antibacterial activity against Mycobacterium smegmatis CCM 2067 after 24 hrs by twofold serial dilution method. To be noted: CCM 2067, 24 h.
For experiment [4], the system named is Micrococcus luteus. Briefly: Antibacterial activity against Micrococcus luteus La 2971 after 24 hrs by twofold serial dilution method.
The subject of experiment [5] is Micrococcus luteus. Briefly: Antibacterial activity against Micrococcus luteus La 2971 after 24 hrs by disk diffusion method.
In experiment [6] the test system is Escherichia coli. Briefly: Antibacterial activity against Escherichia coli ATCC 11230 after 24 hrs by twofold serial dilution method. To be noted: ATCC 11230, 24 h.
The subject of experiment [7] is Debaryomyces hansenii. Briefly: Antifungal activity against Debaryomyces hansenii DSM 70238 after 48 hrs by twofold serial dilution method. The settings on record: DSM 70238, 48 h.
In experiment [8] the test system is Listeria monocytogenes. Briefly: Antibacterial activity against Listeria monocytogenes ATCC 15313 after 24 hrs by twofold serial dilution method. The settings on record: ATCC 15313, 24 h.
Experiment [9] has as its system Proteus vulgaris. Briefly: Antibacterial activity against Proteus vulgaris ATCC 8427 after 24 hrs by twofold serial dilution method. The settings on record: ATCC 8427, 24 h.
Experiment [10] relates to Listeria monocytogenes. The experiment is described as follows: Antibacterial activity against Listeria monocytogenes ATCC 15313 after 24 hrs by disk diffusion method.
Experiment [11] deals with Staphylococcus aureus. The experiment is described as follows: Antibacterial activity against Staphylococcus aureus ATCC 6538 after 24 hrs by twofold serial dilution method. To be noted: ATCC 6538, 24 h.
For experiment [12], the system named is Mycolicibacterium smegmatis. The experiment is described as follows: Antibacterial activity against Mycobacterium smegmatis CCM 2067 after 24 hrs by disk diffusion method.
Experiment [13] concerns Hanseniaspora guilliermondii. The experiment is described as follows: Antifungal activity against Hanseniaspora guilliermondii DSM 3432 after 72 hrs by disk diffusion method.
For experiment [14], the system named is Candida albicans. The experiment is described as follows: Antifungal activity against Candida albicans ATCC 10231 after 48 hrs by twofold serial dilution method. To be noted: ATCC 10231, 48 h.
Experiment [15] concerns Candida albicans. Briefly: Antifungal activity against Candida albicans ATCC 10231 after 72 hrs by disk diffusion method.
In experiment [16] the test system is Hanseniaspora guilliermondii. Briefly: Antifungal activity against Hanseniaspora guilliermondii DSM 3432 after 48 hrs by twofold serial dilution method. The settings on record: DSM 3432, 48 h.
In experiment [17] the test system is Debaryomyces hansenii. The experiment is described as follows: Antifungal activity against Debaryomyces hansenii DSM 70238 after 72 hrs by disk diffusion method.
The test system of experiment [18] is Staphylococcus aureus. The experiment is described as follows: Antibacterial activity against Staphylococcus aureus ATCC 6538 after 24 hrs by disk diffusion method.
The subject of experiment [19] is Bacillus cereus. The experiment is described as follows: Antibacterial activity against Bacillus cereus ATCC 7064 after 24 hrs by twofold serial dilution method. The settings on record: ATCC 7064, 24 h.
For experiment [20], the system named is Rhodotorula mucilaginosa. Briefly: Antifungal activity against Rhodotorula rubra DSM 70403 after 72 hrs by disk diffusion method.
Experiment [21] has as its system Bacillus cereus. The experiment is described as follows: Antibacterial activity against Bacillus cereus ATCC 7064 after 24 hrs by disk diffusion method.
For experiment [22], the system named is Klebsiella pneumoniae. Briefly: Antibacterial activity against Klebsiella pneumoniae UC57 after 24 hrs by disk diffusion method.
Experiment [23] has as its system Pseudomonas aeruginosa. Briefly: Antibacterial activity against Pseudomonas aeruginosa ATCC 27853 after 24 hrs by twofold serial dilution method. To be noted: ATCC 27853, 24 h.
In experiment [24] the test system is Kluyveromyces marxianus. The experiment is described as follows: Antifungal activity against Kluyveromyces fragilis NRRL 2415 after 72 hrs by disk diffusion method.
In experiment [25] the test system is Kluyveromyces marxianus. The experiment is described as follows: Antifungal activity against Kluyveromyces fragilis NRRL 2415 after 48 hrs by twofold serial dilution method. The settings on record: NRRL 2415, 48 h.
Experiment [26] relates to Pseudomonas aeruginosa. The experiment is described as follows: Antibacterial activity against Pseudomonas aeruginosa ATCC 27853 after 24 hrs by disk diffusion method.
Experiment [27] deals with Escherichia coli. Briefly: Antibacterial activity against Escherichia coli ATCC 11230 after 24 hrs by disk diffusion method.
The subject of experiment [28] is Rhodotorula mucilaginosa. The experiment is described as follows: Antifungal activity against Rhodotorula rubra DSM 70403 after 48 hrs by twofold serial dilution method. To be noted: DSM 70403, 48 h.
For experiment [29], the system named is Micrococcus luteus. The experiment is described as follows: Antibacterial activity against Micrococcus luteus La 2971 at 1 ug after 24 hrs by disk diffusion method. The settings on record: read-out: IZ.
For experiment [30], the system named is Klebsiella pneumoniae. The experiment is described as follows: Antibacterial activity against Klebsiella pneumoniae UC57 at 1 ug after 24 hrs by disk diffusion method. To be noted: read-out: IZ.
Experiment [31] relates to Escherichia coli. Briefly: Antibacterial activity against Escherichia coli ATCC 11230 at 1 ug after 24 hrs by disk diffusion method. The settings on record: ATCC 11230, 24 h, read-out: IZ.
For experiment [32], the system named is Listeria monocytogenes. Briefly: Antibacterial activity against Listeria monocytogenes ATCC 15313 at 1 ug after 24 hrs by disk diffusion method. To be noted: ATCC 15313, 24 h, read-out: IZ.
The subject of experiment [33] is Pseudomonas aeruginosa. Briefly: Antibacterial activity against Pseudomonas aeruginosa ATCC 27853 at 1 ug after 24 hrs by disk diffusion method. To be noted: ATCC 27853, 24 h, read-out: IZ.
The test system of experiment [34] is Bacillus cereus. Briefly: Antibacterial activity against Bacillus cereus ATCC 7064 at 1 ug after 24 hrs by disk diffusion method. To be noted: ATCC 7064, 24 h, read-out: IZ.
Experiment [35] deals with Proteus vulgaris. The experiment is described as follows: Antibacterial activity against Proteus vulgaris ATCC 8427 at 1 ug after 24 hrs by disk diffusion method. To be noted: ATCC 8427, 24 h, read-out: IZ.
The subject of experiment [36] is Mycolicibacterium smegmatis. Briefly: Antibacterial activity against Mycobacterium smegmatis CCM 2067 at 1 ug after 24 hrs by disk diffusion method. To be noted: CCM 2067, 24 h, read-out: IZ.
The test system of experiment [37] is Staphylococcus aureus. Briefly: Antibacterial activity against Staphylococcus aureus ATCC 6538 at 1 ug after 24 hrs by disk diffusion method. The settings on record: ATCC 6538, 24 h, read-out: IZ.

Each structure is given as a SMILES string. Converted amounts (≈) assume the structure as drawn.

In general, MIC refers to the lowest concentration found to suppress growth. Low values mean a more susceptible organism, high ones a less susceptible organism. Turning to `O=C1CSCC(=O)Nc2cccc(n2)NC(=O)CSCC(=O)Nc2cccc(n2)N1`, the “inhibition zone (IZ)” value in the experiment on Proteus vulgaris [1] was found to be 11 mm; in the experiment with Micrococcus luteus [5], 12 mm; in the experiment on Listeria monocytogenes [10], 12 mm; in experiment [12], 10 mm; in [13] it was 20 mm; in the experiment with Candida albicans [15], 17 mm. Further, the “inhibition zone (IZ)” value with Debaryomyces hansenii [17] came to 18 mm; in the experiment on Staphylococcus aureus [18], 14 mm; in the experiment on Rhodotorula mucilaginosa [20], 15 mm; in the experiment on Bacillus cereus [21] it was 12 mm; with Klebsiella pneumoniae [22], 15 mm; in the experiment with Kluyveromyces marxianus [24] it was 20 mm. Besides, the “inhibition zone (IZ)” value with Pseudomonas aeruginosa [26] came out at 16 mm; in the experiment on Escherichia coli [27] it was 10 mm. Besides, the minimum inhibitory concentration (MIC) in the experiment with Klebsiella pneumoniae [2] came out at 6.25 µg/mL (≈ 14 µM); in [3], 25 µg/mL (≈ 56 µM); with Micrococcus luteus [4], 12.5 µg/mL (≈ 28 µM); against Escherichia coli [6], 25 µg/mL (≈ 56 µM); against Debaryomyces hansenii [7], 3.12 µg/mL (≈ 7 µM); against Listeria monocytogenes [8], 12.5 µg/mL (≈ 28 µM). Besides, the minimum inhibitory concentration (MIC) came out at 25 µg/mL (≈ 56 µM) in the experiment with Proteus vulgaris [9]; 12.5 µg/mL (≈ 28 µM) against Staphylococcus aureus [11]; 6.25 µg/mL (≈ 14 µM) in the experiment on Candida albicans [14]; 3.12 µg/mL (≈ 7 µM) in experiment [16]; 12.5 µg/mL (≈ 28 µM) in the experiment with Bacillus cereus [19]; 6.25 µg/mL (≈ 14 µM) in the experiment on Pseudomonas aeruginosa [23]. In addition, the minimum inhibitory concentration (MIC) against Kluyveromyces marxianus [25] came out at 3.12 µg/mL (≈ 7 µM); in the experiment with Rhodotorula mucilaginosa [28], 6.25 µg/mL (≈ 14 µM).
On to `O=C1CCSSCCC(=O)Nc2cccc(n2)NC(=O)CCSSCCC(=O)Nc2cccc(n2)N1`, for which the “inhibition zone (IZ)” value in the experiment on Proteus vulgaris [1] was determined as 11 mm; with Micrococcus luteus [5], 15 mm; in the experiment on Listeria monocytogenes [10], 15 mm; in experiment [12], 10 mm; in experiment [13], 22 mm; in the experiment with Candida albicans [15] it was 22 mm. In addition, the “inhibition zone (IZ)” value in the experiment on Debaryomyces hansenii [17] was 22 mm; with Staphylococcus aureus [18], 15 mm; in the experiment on Rhodotorula mucilaginosa [20] it was 22 mm; in the experiment with Bacillus cereus [21], 15 mm; in the experiment with Klebsiella pneumoniae [22] it was 17 mm; in the experiment with Kluyveromyces marxianus [24] it was 22 mm. Further, the entries for the “inhibition zone (IZ)” value in the experiment on Pseudomonas aeruginosa [26] and in the experiment with Escherichia coli [27] were 17 mm and 16 mm, respectively. Besides, the MIC stood at 6.25 µg/mL (≈ 11 µM) against Klebsiella pneumoniae [2]; 25 µg/mL (≈ 44.1 µM) in experiment [3]; 12.5 µg/mL (≈ 22.1 µM) in the experiment with Micrococcus luteus [4]; 6.25 µg/mL (≈ 11 µM) in the experiment with Escherichia coli [6]; 1.56 µg/mL (≈ 2.75 µM) against Debaryomyces hansenii [7]; 12.5 µg/mL (≈ 22.1 µM) against Listeria monocytogenes [8]. Besides, the MIC against Proteus vulgaris [9] was 25 µg/mL (≈ 44.1 µM); in the experiment on Staphylococcus aureus [11] it was 6.25 µg/mL (≈ 11 µM); in the experiment on Candida albicans [14] it was 1.56 µg/mL (≈ 2.75 µM); in experiment [16], 1.56 µg/mL (≈ 2.75 µM); with Bacillus cereus [19], 12.5 µg/mL (≈ 22.1 µM); in the experiment on Pseudomonas aeruginosa [23], 6.25 µg/mL (≈ 11 µM). Besides, the minimum inhibitory concentration (MIC) against Kluyveromyces marxianus [25] and in the experiment on Rhodotorula mucilaginosa [28] was 1.56 µg/mL (≈ 2.75 µM) each time.
As to `CC1(C)S[C@@H]2[C@H](NC(=O)[C@H](N)c3ccccc3)C(=O)N2[C@H]1C(=O)O` [AMPICILLIN], the zone of inhibition at 1 µg/disc in the experiment with Micrococcus luteus [29] stood at 10 mm; with Klebsiella pneumoniae [30] it was 14 mm; in the experiment on Escherichia coli [31], 12 mm; in the experiment on Listeria monocytogenes [32] it was 12 mm; with Pseudomonas aeruginosa [33] it was 12 mm; in the experiment with Bacillus cereus [34] it was 16 mm. In addition, the values for the zone of inhibition at 1 µg/disc (with Proteus vulgaris [35]; in experiment [36]; in the experiment on Staphylococcus aureus [37]) were 32 mm, 21 mm and 16 mm, respectively.
As for `CO/N=C(\C(=O)N[C@@H]1C(=O)N2C(C(=O)O)=C(COC(C)=O)CS[C@H]12)c1csc(N)n1` [CEFOTAXIME], the zone of inhibition at 1 µg/disc is 54 mm in the experiment on Micrococcus luteus [29]; 13 mm in the experiment with Klebsiella pneumoniae [30]; 10 mm in the experiment with Escherichia coli [31]; 16 mm with Listeria monocytogenes [32]; 14 mm with Pseudomonas aeruginosa [33]; 18 mm with Bacillus cereus [34]. Also, the zone of inhibition at 1 µg/disc with Proteus vulgaris [35] is 32 mm; in [36], 11 mm; in the experiment on Staphylococcus aureus [37] it was 12 mm.
